Assay results taken from ChEMBL document CHEMBL1201862, “PubChem BioAssay data set” (2004).
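Dose response: 5 concentrations. Exposure: 48 h. Format: 96-well plates. Endpoint: linear interpolation; highest concentration if not reached. GI50 = concentration required for 50% inhibition of growth.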 Calls of active or inactive are those of the source. Rule as the data show it: active = GI50 up to about 1.1 µM and inactive = higher.

How the values were obtained:
Assay in all cases: DTP human tumour cell line panel, 48 h
UACC-62 = tested on: UACC-62
HT-29 = tested on: HT-29
HOP-62 = tested on: HOP-62
UACC-257 = tested on: UACC-257
SK-MEL-5 = tested on: SK-MEL-5
LXFL 529 = tested on: LXFL 529
M14 = tested on: M14
MOLT-4 = tested on: MOLT-4
SW-620 = tested on: SW-620
U-251 = tested on: U-251
IGROV-1 = tested on: IGROV-1
K562 = tested on: K562
ACHN = tested on: ACHN
SNB-78 = tested on: SNB-78
SK-OV-3 = tested on: SK-OV-3
PC-3 = tested on: PC-3
OVCAR-4 = tested on: OVCAR-4
MDA-MB-435 = tested on: MDA-MB-435
NCI-H226 = tested on: NCI-H226

Row | SMILES | GI50 (UACC-62) | GI50 (HT-29) | GI50 (HOP-62) | GI50 (UACC-257) | GI50 (SK-MEL-5) | GI50 (LXFL 529) | GI50 (M14) | GI50 (MOLT-4) | GI50 (SW-620) | GI50 (U-251) | GI50 (IGROV-1) | GI50 (K562) | GI50 (ACHN) | GI50 (SNB-78) | GI50 (SK-OV-3) | GI50 (PC-3) | GI50 (OVCAR-4) | GI50 (MDA-MB-435) | GI50 (NCI-H226)
1 | Cc1ccc(S(=O)(=O)N2CCN(C=S)CC2)cc1 | > 100 µM (inactive) | > 100 µM (inactive) | > 100 µM (inactive) | > 100 µM (inactive) | > 100 µM (inactive) | > 100 µM (inactive) | > 100 µM (inactive) | > 100 µM (inactive) | > 100 µM (inactive) | > 100 µM (inactive) | > 100 µM (inactive) | > 100 µM (inactive) | > 100 µM (inactive) | > 100 µM (inactive) | > 100 µM (inactive) |  |  |  | 
2 | C=CCN1CN(C2CCCCC2)CSC1=S | 5.86 µM (inactive) | 3.48 µM (inactive) | 5.57 µM (inactive) | 3.68 µM (inactive) | 2.68 µM (inactive) |  | 2.77 µM (inactive) | 1.11 µM (active) | 0.733 µM (active) | 3.59 µM (inactive) | 8.34 µM (inactive) | 0.652 µM (active) | 4.02 µM (inactive) |  | 14.4 µM (inactive) | 5.02 µM (inactive) | 12.8 µM (inactive) | 0.944 µM (active) | 14.6 µM (inactive)
3 | O=C(Nc1sccc1S(=O)(=O)c1ccccc1)c1cccnc1 | 14 µM (inactive) | 5.68 µM (inactive) | 21.9 µM (inactive) | 37.5 µM (inactive) | 3.61 µM (inactive) |  | 6.08 µM (inactive) | 5.35 µM (inactive) | 5.92 µM (inactive) | 2.97 µM (inactive) | 9.02 µM (inactive) | 4.39 µM (inactive) | 64.9 µM (inactive) |  | 11.7 µM (inactive) | 37.6 µM (inactive) | > 100 µM (inactive) | 1.83 µM (inactive) | 13.7 µM (inactive)
4 | Cc1ccc(C(=O)Nc2ccc(CP(=O)(O)O)cc2)cc1NC(=O)c1cccc(N)c1 | > 100 µM (inactive) | > 100 µM (inactive) | > 100 µM (inactive) | > 100 µM (inactive) | > 100 µM (inactive) |  | > 100 µM (inactive) | > 100 µM (inactive) | > 100 µM (inactive) | > 100 µM (inactive) | > 100 µM (inactive) | > 100 µM (inactive) | > 100 µM (inactive) |  | > 100 µM (inactive) | > 100 µM (inactive) | > 100 µM (inactive) | > 100 µM (inactive) | > 100 µM (inactive)
5 | CCOC(=O)C(SCCO)C(C(=O)OCC)n1ccc(N)nc1=O (configuration not stated) | > 100 µM (inactive) | > 100 µM (inactive) | > 100 µM (inactive) | > 100 µM (inactive) | > 100 µM (inactive) |  | > 100 µM (inactive) | > 100 µM (inactive) | > 100 µM (inactive) | > 100 µM (inactive) | > 100 µM (inactive) | > 100 µM (inactive) | > 100 µM (inactive) |  | > 100 µM (inactive) | > 100 µM (inactive) | > 100 µM (inactive) | > 100 µM (inactive) | > 100 µM (inactive)
6 | O=C(O)C1CCCN1Cc1ccc2c(c1)OCO2 (configuration not stated) | > 100 µM (inactive) | > 100 µM (inactive) | > 100 µM (inactive) | > 100 µM (inactive) | > 100 µM (inactive) |  | > 100 µM (inactive) | > 100 µM (inactive) | > 100 µM (inactive) | > 100 µM (inactive) | > 100 µM (inactive) | > 100 µM (inactive) | > 100 µM (inactive) |  | > 100 µM (inactive) | > 100 µM (inactive) | > 100 µM (inactive) | > 100 µM (inactive) | > 100 µM (inactive)
7 | C=C(Cl)/C(=C\Cl)CCC(Br)C(C)C (configuration not stated) | 51.8 µM (inactive) | > 100 µM (inactive) | > 100 µM (inactive) | 58.5 µM (inactive) | > 100 µM (inactive) |  | 64.3 µM (inactive) | 37.9 µM (inactive) | 19.5 µM (inactive) | > 100 µM (inactive) | > 100 µM (inactive) | 36.2 µM (inactive) | > 100 µM (inactive) |  | > 100 µM (inactive) | > 100 µM (inactive) | 29.2 µM (inactive) | 81.5 µM (inactive) | > 100 µM (inactive)
8 | C[C@@]12C[C@@H](c3ccccc3O1)N1CCCCSC1=N2 | > 100 µM (inactive) | > 100 µM (inactive) | > 100 µM (inactive) | > 100 µM (inactive) | > 100 µM (inactive) |  | > 100 µM (inactive) | > 100 µM (inactive) | > 100 µM (inactive) | > 100 µM (inactive) | > 100 µM (inactive) | > 100 µM (inactive) | > 100 µM (inactive) |  | > 100 µM (inactive) | > 100 µM (inactive) | > 100 µM (inactive) | > 100 µM (inactive) | > 100 µM (inactive)
9 | COc1ccc(-n2c(N)c(C#N)[nH]c2=O)cc1 | > 10 µM (inactive) | > 10 µM (inactive) | > 10 µM (inactive) | > 10 µM (inactive) | > 10 µM (inactive) |  | > 10 µM (inactive) | > 10 µM (inactive) | > 10 µM (inactive) | > 10 µM (inactive) | > 10 µM (inactive) | > 10 µM (inactive) | > 10 µM (inactive) |  | > 10 µM (inactive) | > 10 µM (inactive) | > 10 µM (inactive) | > 10 µM (inactive) | > 10 µM (inactive)
10 | COc1ccc2c(C)c(Oc3c(Cl)c(Cl)c(O)c(C#N)c3C#N)oc2c1 | > 100 µM (inactive) | > 100 µM (inactive) | > 100 µM (inactive) | > 100 µM (inactive) | > 100 µM (inactive) |  | > 100 µM (inactive) | > 100 µM (inactive) | > 100 µM (inactive) | > 100 µM (inactive) | > 100 µM (inactive) | > 100 µM (inactive) | > 100 µM (inactive) |  | > 100 µM (inactive) | > 100 µM (inactive) | > 100 µM (inactive) | > 100 µM (inactive) | > 100 µM (inactive)
11 | Cc1cn(CC2=NCCN2)c(=O)[nH]c1=O | > 100 µM (inactive) | > 100 µM (inactive) | > 100 µM (inactive) | > 100 µM (inactive) | > 100 µM (inactive) |  | > 100 µM (inactive) | > 100 µM (inactive) | > 100 µM (inactive) | > 100 µM (inactive) | > 100 µM (inactive) | > 100 µM (inactive) | > 100 µM (inactive) |  | > 100 µM (inactive) | > 100 µM (inactive) | > 100 µM (inactive) | > 100 µM (inactive) | > 100 µM (inactive)
12 | C[C@@]1(CO)[C@H](O)CC[C@@]2(C)[C@H]1CC[C@H]1C[C@@H]3C[C@@]12CC[C@@]3(O)COC(=O)CN | 2.32 µM (inactive) | 9.25 µM (inactive) | 14 µM (inactive) | 33.9 µM (inactive) | 11.2 µM (inactive) | > 100 µM (inactive) | 5.15 µM (inactive) | 2.23 µM (inactive) |  | 10.6 µM (inactive) |  | 5.55 µM (inactive) | 0.098 µM (active) |  | 39.4 µM (inactive) | 21.3 µM (inactive) | 49.8 µM (inactive) | 11.6 µM (inactive) | 
13 | COc1ccc(C2C(C(=O)c3ccccc3)=C(O)C(O)(CC(=O)c3ccccc3)N2c2ccc(OC)cc2)cc1 (configuration not stated) | 22.8 µM (inactive) | 19.3 µM (inactive) | 18.8 µM (inactive) | 7.94 µM (inactive) | 9.57 µM (inactive) |  | 31.2 µM (inactive) | 12.5 µM (inactive) | 9.08 µM (inactive) | 8.09 µM (inactive) | 21.9 µM (inactive) | 16.6 µM (inactive) | 21 µM (inactive) |  | 25.2 µM (inactive) | 11.6 µM (inactive) | 19.1 µM (inactive) | 18.6 µM (inactive) | 16.1 µM (inactive)
14 | Oc1cccc2ccc(Br)nc12 | > 100 µM (inactive) | > 100 µM (inactive) | > 100 µM (inactive) | > 100 µM (inactive) | > 100 µM (inactive) |  | > 100 µM (inactive) | > 100 µM (inactive) | > 100 µM (inactive) | > 100 µM (inactive) | > 100 µM (inactive) | > 100 µM (inactive) | > 100 µM (inactive) |  | > 100 µM (inactive) | 86.5 µM (inactive) | > 100 µM (inactive) | > 100 µM (inactive) | > 100 µM (inactive)
15 | O/N=N/c1ccccn1.OCC1OC2OC3C(CO)OC(OC4C(CO)OC(OC5C(CO)OC(OC6C(CO)OC(OC7C(CO)OC(OC1C(O)C2O)C(O)C7O)C(O)C6O)C(O)C5O)C(O)C4O)C(O)C3O (configuration not stated) | 47.9 µM (inactive) | > 100 µM (inactive) | > 100 µM (inactive) | 71.1 µM (inactive) | 30.5 µM (inactive) |  | 30.8 µM (inactive) | > 100 µM (inactive) | 42.1 µM (inactive) | > 100 µM (inactive) | > 100 µM (inactive) | 48.4 µM (inactive) | > 100 µM (inactive) |  | > 100 µM (inactive) | 65.3 µM (inactive) | > 100 µM (inactive) | 19.2 µM (inactive) | > 100 µM (inactive)
16 | CC(C)(C)OC(=O)C#CC[C@H]1CCCC1/C=C/C(O)=C1/C(=O)NC(CCCNC(=O)OC(C)(C)C)C1=O (some centres not stated) | 18.3 µM (inactive) | 40.1 µM (inactive) | 45.4 µM (inactive) | 24.2 µM (inactive) | 47.8 µM (inactive) | 21.8 µM (inactive) | 45.7 µM (inactive) | 32.1 µM (inactive) | 38.5 µM (inactive) | 25.9 µM (inactive) | 39.5 µM (inactive) | 36 µM (inactive) | 40.7 µM (inactive) |  | 88.5 µM (inactive) |  | 33.5 µM (inactive) |  | 88.1 µM (inactive)
